{"source": "patent US10669284B2", "about": "“Fused thiazolopyrimidine derivatives as MNKS inhibitors” (LIFEARC, priority 2015, dated 2020)", "key": {"MTOR": {"molecular_target": "MTOR (Homo sapiens, UniProt P42345)", "assay": "Kinase selectivity screen MTOR", "conditions": "read-out: % inhibition of MTOR"}, "PLK1": {"molecular_target": "PLK1 (Homo sapiens, UniProt P53350)", "assay": "Kinase selectivity screen PLK1", "conditions": "read-out: % inhibition of PLK1"}, "BLK": {"molecular_target": "BLK (Homo sapiens, UniProt P51451)", "sequence (P51451 whole entry, species assumed)": "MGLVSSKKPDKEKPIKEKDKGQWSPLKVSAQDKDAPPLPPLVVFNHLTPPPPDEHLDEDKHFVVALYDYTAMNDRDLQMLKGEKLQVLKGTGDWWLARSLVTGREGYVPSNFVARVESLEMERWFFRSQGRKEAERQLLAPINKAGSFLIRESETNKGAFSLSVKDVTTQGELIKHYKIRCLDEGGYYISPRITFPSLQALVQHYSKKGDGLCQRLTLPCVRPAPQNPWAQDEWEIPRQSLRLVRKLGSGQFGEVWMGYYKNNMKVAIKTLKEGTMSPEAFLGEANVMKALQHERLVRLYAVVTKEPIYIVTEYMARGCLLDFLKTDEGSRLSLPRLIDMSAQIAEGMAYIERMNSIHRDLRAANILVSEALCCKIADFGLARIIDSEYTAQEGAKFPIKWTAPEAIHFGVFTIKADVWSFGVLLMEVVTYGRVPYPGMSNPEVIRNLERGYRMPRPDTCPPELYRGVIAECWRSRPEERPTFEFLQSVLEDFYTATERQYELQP", "assay": "Kinase selectivity screen BLK", "conditions": "read-out: % inhibition of BLK"}, "MAP2K1": {"molecular_target": "MAP2K1 (Homo sapiens, UniProt Q02750)", "assay": "Kinase selectivity screen MAP2K1", "conditions": "read-out: % inhibition of MAP2K1"}, "FGFR4": {"molecular_target": "FGFR4 (Homo sapiens, UniProt P22455)", "assay": "Kinase selectivity screen FGFR4", "conditions": "read-out: % inhibition of FGFR4"}, "ROCK1": {"molecular_target": "ROCK1 (Homo sapiens, UniProt Q13464)", "sequence (Q13464 whole entry, species assumed)": "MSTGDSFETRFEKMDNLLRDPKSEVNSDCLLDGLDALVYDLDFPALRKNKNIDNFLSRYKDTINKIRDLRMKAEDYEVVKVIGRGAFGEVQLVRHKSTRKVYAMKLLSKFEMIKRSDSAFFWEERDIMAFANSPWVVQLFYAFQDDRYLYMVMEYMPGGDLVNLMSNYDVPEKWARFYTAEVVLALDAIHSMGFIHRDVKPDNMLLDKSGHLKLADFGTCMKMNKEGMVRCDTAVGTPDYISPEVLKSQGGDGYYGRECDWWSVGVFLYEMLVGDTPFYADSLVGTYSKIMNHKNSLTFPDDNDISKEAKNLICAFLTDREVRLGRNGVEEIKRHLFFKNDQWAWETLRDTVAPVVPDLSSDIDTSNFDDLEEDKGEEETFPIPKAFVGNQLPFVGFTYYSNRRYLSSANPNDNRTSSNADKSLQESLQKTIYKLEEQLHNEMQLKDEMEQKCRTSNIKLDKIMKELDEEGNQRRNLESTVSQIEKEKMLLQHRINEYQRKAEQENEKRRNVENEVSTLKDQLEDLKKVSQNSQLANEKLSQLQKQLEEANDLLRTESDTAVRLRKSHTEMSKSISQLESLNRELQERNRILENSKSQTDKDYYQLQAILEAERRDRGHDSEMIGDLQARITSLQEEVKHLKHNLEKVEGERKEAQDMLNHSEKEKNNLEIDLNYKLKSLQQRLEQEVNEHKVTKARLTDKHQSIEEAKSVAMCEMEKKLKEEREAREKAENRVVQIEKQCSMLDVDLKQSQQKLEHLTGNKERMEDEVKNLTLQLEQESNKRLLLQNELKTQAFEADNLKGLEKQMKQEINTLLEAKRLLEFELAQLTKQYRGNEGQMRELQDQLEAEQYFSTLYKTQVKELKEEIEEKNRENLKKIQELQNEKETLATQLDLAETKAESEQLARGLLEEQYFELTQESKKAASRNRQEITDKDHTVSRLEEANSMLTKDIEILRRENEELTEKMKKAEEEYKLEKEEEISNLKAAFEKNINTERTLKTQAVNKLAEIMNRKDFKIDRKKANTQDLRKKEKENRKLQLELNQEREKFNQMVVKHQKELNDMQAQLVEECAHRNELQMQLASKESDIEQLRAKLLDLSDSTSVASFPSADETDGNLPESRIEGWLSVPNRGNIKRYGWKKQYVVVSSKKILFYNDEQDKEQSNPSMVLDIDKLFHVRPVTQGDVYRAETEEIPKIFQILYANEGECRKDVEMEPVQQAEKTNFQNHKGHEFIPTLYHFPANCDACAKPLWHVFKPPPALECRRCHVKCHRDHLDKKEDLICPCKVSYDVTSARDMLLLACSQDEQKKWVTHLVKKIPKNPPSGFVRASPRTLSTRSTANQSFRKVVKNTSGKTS", "assay": "Kinase selectivity screen ROCK1", "conditions": "read-out: % inhibition of ROCK1"}, "ABL1": {"molecular_target": "ABL1 (Homo sapiens, UniProt P00519)", "assay": "Kinase selectivity screen ABL1", "conditions": "read-out: % inhibition of ABL1"}, "FES": {"molecular_target": "FES (Homo sapiens, UniProt P07332)", "sequence (P07332 whole entry, species assumed)": "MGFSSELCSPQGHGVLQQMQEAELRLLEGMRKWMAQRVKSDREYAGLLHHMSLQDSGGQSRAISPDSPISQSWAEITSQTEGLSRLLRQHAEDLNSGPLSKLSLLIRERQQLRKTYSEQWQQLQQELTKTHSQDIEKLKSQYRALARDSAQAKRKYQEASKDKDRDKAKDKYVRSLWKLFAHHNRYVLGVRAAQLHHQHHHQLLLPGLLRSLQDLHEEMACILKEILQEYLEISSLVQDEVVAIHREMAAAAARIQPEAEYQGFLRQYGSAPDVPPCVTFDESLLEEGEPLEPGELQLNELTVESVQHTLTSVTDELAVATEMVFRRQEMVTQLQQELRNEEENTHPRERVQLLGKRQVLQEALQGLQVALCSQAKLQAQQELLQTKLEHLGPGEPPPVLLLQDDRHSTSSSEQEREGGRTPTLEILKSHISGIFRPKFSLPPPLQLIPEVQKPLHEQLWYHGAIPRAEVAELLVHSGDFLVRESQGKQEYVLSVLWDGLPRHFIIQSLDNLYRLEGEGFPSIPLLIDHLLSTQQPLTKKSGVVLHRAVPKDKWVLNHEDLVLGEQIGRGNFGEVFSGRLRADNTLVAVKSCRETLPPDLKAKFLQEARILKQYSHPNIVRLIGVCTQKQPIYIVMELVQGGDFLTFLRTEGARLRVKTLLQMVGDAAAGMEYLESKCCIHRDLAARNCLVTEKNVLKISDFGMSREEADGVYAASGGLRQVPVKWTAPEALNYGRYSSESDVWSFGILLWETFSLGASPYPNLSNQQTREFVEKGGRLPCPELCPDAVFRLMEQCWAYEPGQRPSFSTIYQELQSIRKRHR", "assay": "Kinase selectivity screen FES", "conditions": "read-out: % inhibition of FES"}, "RPS6KB1": {"molecular_target": "RPS6KB1 (Homo sapiens, UniProt P23443)", "assay": "Kinase selectivity screen RPS6KB1", "conditions": "read-out: % inhibition of RPS6KB1"}, "EPHA5": {"molecular_target": "EPHA5 (Homo sapiens, UniProt P54756)", "sequence (P54756 25-1037, species assumed)": "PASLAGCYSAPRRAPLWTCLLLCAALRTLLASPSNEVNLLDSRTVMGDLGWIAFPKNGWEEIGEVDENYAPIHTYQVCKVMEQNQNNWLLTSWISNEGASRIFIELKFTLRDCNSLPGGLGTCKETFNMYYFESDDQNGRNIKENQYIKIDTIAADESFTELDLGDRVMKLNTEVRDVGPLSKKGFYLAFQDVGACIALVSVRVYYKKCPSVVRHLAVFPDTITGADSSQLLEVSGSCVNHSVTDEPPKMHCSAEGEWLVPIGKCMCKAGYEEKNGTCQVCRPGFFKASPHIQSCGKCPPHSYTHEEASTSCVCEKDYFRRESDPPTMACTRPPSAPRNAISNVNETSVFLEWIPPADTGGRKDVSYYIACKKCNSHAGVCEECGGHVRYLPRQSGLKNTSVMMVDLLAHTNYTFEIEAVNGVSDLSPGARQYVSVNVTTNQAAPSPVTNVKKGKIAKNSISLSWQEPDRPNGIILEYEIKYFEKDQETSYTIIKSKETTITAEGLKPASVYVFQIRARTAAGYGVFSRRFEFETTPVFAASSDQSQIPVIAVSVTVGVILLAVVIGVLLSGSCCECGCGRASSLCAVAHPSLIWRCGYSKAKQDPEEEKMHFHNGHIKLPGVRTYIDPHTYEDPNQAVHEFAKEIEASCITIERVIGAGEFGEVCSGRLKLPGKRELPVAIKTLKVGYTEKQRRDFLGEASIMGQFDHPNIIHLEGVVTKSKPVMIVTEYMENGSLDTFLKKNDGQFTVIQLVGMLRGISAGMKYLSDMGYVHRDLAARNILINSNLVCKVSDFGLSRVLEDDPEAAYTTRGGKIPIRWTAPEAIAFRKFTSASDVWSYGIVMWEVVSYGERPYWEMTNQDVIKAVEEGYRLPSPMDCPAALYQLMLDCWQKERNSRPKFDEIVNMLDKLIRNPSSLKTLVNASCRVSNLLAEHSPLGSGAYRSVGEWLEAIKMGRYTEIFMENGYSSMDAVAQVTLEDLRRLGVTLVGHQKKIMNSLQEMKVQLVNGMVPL", "assay": "Kinase selectivity screen EPHA5", "conditions": "read-out: % inhibition of EPHA5"}, "PRKAA2": {"molecular_target": "PRKAA2 (Homo sapiens, UniProt P54646)", "assay": "Kinase selectivity screen PRKAA2", "conditions": "read-out: % inhibition of PRKAA2"}, "ABL2": {"molecular_target": "ABL2 (Homo sapiens, UniProt P42684)", "sequence (P42684 whole entry, species assumed)": "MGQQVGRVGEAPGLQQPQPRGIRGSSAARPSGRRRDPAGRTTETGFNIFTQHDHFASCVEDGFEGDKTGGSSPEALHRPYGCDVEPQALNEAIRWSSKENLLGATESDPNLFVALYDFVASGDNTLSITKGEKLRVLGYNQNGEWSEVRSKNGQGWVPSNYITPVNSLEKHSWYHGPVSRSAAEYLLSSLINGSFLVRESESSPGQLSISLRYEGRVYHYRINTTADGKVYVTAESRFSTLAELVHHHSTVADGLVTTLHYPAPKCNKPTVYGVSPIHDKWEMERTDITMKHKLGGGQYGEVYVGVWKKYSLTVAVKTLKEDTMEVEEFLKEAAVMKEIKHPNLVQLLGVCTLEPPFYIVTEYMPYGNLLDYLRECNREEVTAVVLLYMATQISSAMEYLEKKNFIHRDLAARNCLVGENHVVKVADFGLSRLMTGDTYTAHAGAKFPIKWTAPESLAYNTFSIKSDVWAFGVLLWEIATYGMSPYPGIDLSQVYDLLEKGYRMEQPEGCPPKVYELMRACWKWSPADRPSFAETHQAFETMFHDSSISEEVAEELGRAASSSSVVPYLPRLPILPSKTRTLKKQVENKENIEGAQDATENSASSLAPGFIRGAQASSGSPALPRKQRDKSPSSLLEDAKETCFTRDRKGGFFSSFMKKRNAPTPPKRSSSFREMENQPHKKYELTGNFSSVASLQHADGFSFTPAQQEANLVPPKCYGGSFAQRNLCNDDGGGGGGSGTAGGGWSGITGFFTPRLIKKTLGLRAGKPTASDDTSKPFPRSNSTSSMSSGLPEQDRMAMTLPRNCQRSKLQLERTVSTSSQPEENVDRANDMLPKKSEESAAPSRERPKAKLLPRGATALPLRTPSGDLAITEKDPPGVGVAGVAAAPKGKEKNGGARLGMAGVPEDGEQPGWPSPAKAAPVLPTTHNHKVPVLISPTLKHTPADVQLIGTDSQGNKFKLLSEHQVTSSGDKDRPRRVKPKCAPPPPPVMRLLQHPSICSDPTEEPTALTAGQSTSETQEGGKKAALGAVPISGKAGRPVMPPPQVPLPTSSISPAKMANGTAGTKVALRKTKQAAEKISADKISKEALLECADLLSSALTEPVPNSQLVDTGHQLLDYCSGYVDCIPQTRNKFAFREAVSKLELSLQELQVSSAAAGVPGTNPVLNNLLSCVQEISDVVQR", "assay": "Kinase selectivity screen ABL2", "conditions": "read-out: % inhibition of ABL2"}, "PAK1": {"molecular_target": "PAK1 (Homo sapiens, UniProt Q13153)", "assay": "Kinase selectivity screen PAK1", "conditions": "read-out: % inhibition of PAK1"}, "MYLK": {"molecular_target": "MYLK (Homo sapiens, UniProt Q15746)", "assay": "Kinase selectivity screen MYLK", "conditions": "read-out: % inhibition of MYLK"}, "PIP4K2A": {"molecular_target": "T1, PIP4K2A (Homo sapiens, UniProt P48426)", "T1 sequence (P48426 1-406)": "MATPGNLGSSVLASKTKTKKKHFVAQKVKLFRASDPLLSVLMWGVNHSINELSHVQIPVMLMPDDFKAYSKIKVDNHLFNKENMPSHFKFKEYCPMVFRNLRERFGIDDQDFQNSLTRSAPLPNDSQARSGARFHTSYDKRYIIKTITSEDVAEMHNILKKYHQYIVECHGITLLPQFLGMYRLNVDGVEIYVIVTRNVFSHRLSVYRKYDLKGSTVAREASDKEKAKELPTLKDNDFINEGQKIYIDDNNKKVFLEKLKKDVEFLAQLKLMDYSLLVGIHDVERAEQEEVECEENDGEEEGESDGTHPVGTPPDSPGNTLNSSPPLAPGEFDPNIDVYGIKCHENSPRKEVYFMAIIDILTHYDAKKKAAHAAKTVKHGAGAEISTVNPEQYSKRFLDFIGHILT", "assay": "Kinase selectivity screen PIP4K2A", "conditions": "read-out: % inhibition of PIP4K2A"}, "ULK2": {"molecular_target": "T2, ULK2 (Homo sapiens, UniProt Q8IYT8)", "T2 sequence (Q8IYT8 1-1036)": "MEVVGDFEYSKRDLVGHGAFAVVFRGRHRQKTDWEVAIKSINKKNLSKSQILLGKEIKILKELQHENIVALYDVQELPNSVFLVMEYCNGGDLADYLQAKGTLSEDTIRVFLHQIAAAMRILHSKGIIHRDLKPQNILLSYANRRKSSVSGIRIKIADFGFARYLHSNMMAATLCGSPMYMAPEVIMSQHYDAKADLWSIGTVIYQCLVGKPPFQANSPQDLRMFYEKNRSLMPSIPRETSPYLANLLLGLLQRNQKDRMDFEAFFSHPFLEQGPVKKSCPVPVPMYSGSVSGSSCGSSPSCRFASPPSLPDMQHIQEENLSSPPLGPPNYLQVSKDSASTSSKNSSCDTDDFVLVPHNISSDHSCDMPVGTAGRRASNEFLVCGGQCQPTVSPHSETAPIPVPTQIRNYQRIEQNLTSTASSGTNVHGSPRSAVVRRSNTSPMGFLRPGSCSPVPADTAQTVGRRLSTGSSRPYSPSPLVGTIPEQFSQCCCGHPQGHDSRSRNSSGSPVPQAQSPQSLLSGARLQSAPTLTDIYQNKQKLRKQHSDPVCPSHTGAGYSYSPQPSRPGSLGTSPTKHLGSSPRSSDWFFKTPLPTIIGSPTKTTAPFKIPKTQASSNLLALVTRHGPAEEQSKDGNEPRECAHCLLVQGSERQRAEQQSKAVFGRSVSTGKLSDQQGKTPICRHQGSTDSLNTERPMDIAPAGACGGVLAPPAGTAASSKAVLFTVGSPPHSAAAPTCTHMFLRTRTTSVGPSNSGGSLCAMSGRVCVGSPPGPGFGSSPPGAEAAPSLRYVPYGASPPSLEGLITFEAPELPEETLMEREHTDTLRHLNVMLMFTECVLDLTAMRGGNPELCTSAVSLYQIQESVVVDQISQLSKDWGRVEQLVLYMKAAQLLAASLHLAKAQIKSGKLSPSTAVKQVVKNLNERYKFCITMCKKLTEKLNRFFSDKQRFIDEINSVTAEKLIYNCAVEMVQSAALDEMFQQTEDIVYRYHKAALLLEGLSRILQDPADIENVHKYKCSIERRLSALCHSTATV", "assay": "Kinase selectivity screen ULK2", "conditions": "read-out: % inhibition of ULK2"}, "IGF1R": {"molecular_target": "IGF1R (Homo sapiens, UniProt P08069)", "assay": "Kinase selectivity screen IGF1R", "conditions": "read-out: % inhibition of IGF1R"}}}
{"molecule": "CC(C)Oc1cc(F)ccc1Nc1ncnc2sc(C(=O)NCC3CCNCC3)nc12", "note": "[Example 10, 7-(4-fluoro-2-isopropoxy-anilino)-N-(4-piperidylmethyl)thiazolo[5,4-d]pyrimidine-2-carboxamide]", "values": [{"measurement": "inhibition at 1 µM", "setting": "MTOR", "value": 4, "unit": "%"}, {"measurement": "inhibition at 1 µM", "setting": "PLK1", "value": 0, "unit": "%"}, {"measurement": "inhibition at 1 µM", "setting": "BLK", "value": 18, "unit": "%"}, {"measurement": "inhibition at 1 µM", "setting": "MAP2K1", "value": 0, "unit": "%"}, {"measurement": "inhibition at 1 µM", "setting": "FGFR4", "value": 0, "unit": "%"}, {"measurement": "inhibition at 1 µM", "setting": "ROCK1", "value": 0, "unit": "%"}, {"measurement": "inhibition at 1 µM", "setting": "ABL1", "value": 4, "unit": "%"}, {"measurement": "inhibition at 1 µM", "setting": "FES", "value": 13, "unit": "%"}, {"measurement": "inhibition at 1 µM", "setting": "RPS6KB1", "value": 0, "unit": "%"}, {"measurement": "inhibition at 1 µM", "setting": "EPHA5", "value": 11, "unit": "%"}, {"measurement": "inhibition at 1 µM", "setting": "PRKAA2", "value": 1, "unit": "%"}, {"measurement": "inhibition at 1 µM", "setting": "ABL2", "value": 0, "unit": "%"}, {"measurement": "inhibition at 1 µM", "setting": "PAK1", "value": 0, "unit": "%"}, {"measurement": "inhibition at 1 µM", "setting": "MYLK", "value": 10, "unit": "%"}, {"measurement": "inhibition at 1 µM", "setting": "PIP4K2A", "value": 12, "unit": "%"}, {"measurement": "inhibition at 1 µM", "setting": "ULK2", "value": 0, "unit": "%"}, {"measurement": "inhibition at 1 µM", "setting": "IGF1R", "value": 12, "unit": "%"}]}
{"molecule": "O=C(NCC1CCNCC1)c1nc2c(N3CCc4cc(F)ccc43)ncnc2s1", "note": "[Example 58, 7-(5-fluoroindolin-1-yl)-N-(4-piperidylmethyl)thiazolo[5,4-d]pyrimidine-2-carboxamide]", "values": [{"measurement": "inhibition at 1 µM", "setting": "MTOR", "value": 0, "unit": "%"}, {"measurement": "inhibition at 1 µM", "setting": "PLK1", "value": 1, "unit": "%"}, {"measurement": "inhibition at 1 µM", "setting": "BLK", "value": 0, "unit": "%"}, {"measurement": "inhibition at 1 µM", "setting": "MAP2K1", "value": 7, "unit": "%"}, {"measurement": "inhibition at 1 µM", "setting": "FGFR4", "value": 10, "unit": "%"}, {"measurement": "inhibition at 1 µM", "setting": "ROCK1", "value": 0, "unit": "%"}, {"measurement": "inhibition at 1 µM", "setting": "ABL1", "value": 6, "unit": "%"}, {"measurement": "inhibition at 1 µM", "setting": "FES", "value": 16, "unit": "%"}, {"measurement": "inhibition at 1 µM", "setting": "RPS6KB1", "value": 0, "unit": "%"}, {"measurement": "inhibition at 1 µM", "setting": "EPHA5", "value": 0, "unit": "%"}, {"measurement": "inhibition at 1 µM", "setting": "PRKAA2", "value": 1, "unit": "%"}, {"measurement": "inhibition at 1 µM", "setting": "ABL2", "value": 0, "unit": "%"}, {"measurement": "inhibition at 1 µM", "setting": "PAK1", "value": 9, "unit": "%"}, {"measurement": "inhibition at 1 µM", "setting": "MYLK", "value": 15, "unit": "%"}, {"measurement": "inhibition at 1 µM", "setting": "PIP4K2A", "value": 7, "unit": "%"}, {"measurement": "inhibition at 1 µM", "setting": "ULK2", "value": 21, "unit": "%"}, {"measurement": "inhibition at 1 µM", "setting": "IGF1R", "value": 11, "unit": "%"}]}
{"molecule": "CN(C)CCCNC(=O)c1nc2c(N3CCc4cc(F)ccc43)ncnc2s1", "note": "[Example 64, N-[3-(dimethylamino)propyl]-7-(5-fluoroindolin-1-yl)thiazolo[5,4-d]pyrimidine-2-carboxamide]", "values": [{"measurement": "inhibition at 1 µM", "setting": "MTOR", "value": 3, "unit": "%"}, {"measurement": "inhibition at 1 µM", "setting": "PLK1", "value": 0, "unit": "%"}, {"measurement": "inhibition at 1 µM", "setting": "BLK", "value": 1, "unit": "%"}, {"measurement": "inhibition at 1 µM", "setting": "MAP2K1", "value": 5, "unit": "%"}, {"measurement": "inhibition at 1 µM", "setting": "FGFR4", "value": 0, "unit": "%"}, {"measurement": "inhibition at 1 µM", "setting": "ROCK1", "value": 4, "unit": "%"}, {"measurement": "inhibition at 1 µM", "setting": "ABL1", "value": 4, "unit": "%"}, {"measurement": "inhibition at 1 µM", "setting": "FES", "value": 1, "unit": "%"}, {"measurement": "inhibition at 1 µM", "setting": "RPS6KB1", "value": 0, "unit": "%"}, {"measurement": "inhibition at 1 µM", "setting": "EPHA5", "value": 0, "unit": "%"}, {"measurement": "inhibition at 1 µM", "setting": "PRKAA2", "value": 45, "unit": "%"}, {"measurement": "inhibition at 1 µM", "setting": "ABL2", "value": 0, "unit": "%"}, {"measurement": "inhibition at 1 µM", "setting": "PAK1", "value": 0, "unit": "%"}, {"measurement": "inhibition at 1 µM", "setting": "MYLK", "value": 15, "unit": "%"}, {"measurement": "inhibition at 1 µM", "setting": "PIP4K2A", "value": 0, "unit": "%"}, {"measurement": "inhibition at 1 µM", "setting": "ULK2", "value": 81, "unit": "%"}, {"measurement": "inhibition at 1 µM", "setting": "IGF1R", "value": 0, "unit": "%"}]}
